Reference: patent EP0052564A1, “Derivatives of 2-thiazolyl-oxamic acid substituted in position 4 by a thienyl or furyl radical, their preparation and use as pharmaceutical preparations” (PIERRE FABRE S.A., priority 1980, dated 1982)

Assay: Solubility (in water, ethanol, methyl pyrrolidone)
Assay type: physicochemical
Conditions: for Solubilités : dans la méthyl pyrrolidone: methyl pyrrolidone; for Solubilités : dans l'eau: water; for Solubilités : dans l'éthanol: ethanol

CCOC(=O)C(=O)Nc1nc(-c2ccsc2)cs1 [Exemple 6, ( β thienyl-4 thiazolyl-2) oxamate d'éthyle]
Solubilités : dans la méthyl pyrrolidone: 50%
Solubilités : dans l'eau: insoluble

(α thienyl-4 thiazolyl-2) oxamate de zinc [Exemple 4]
Solubilités : dans la méthyl pyrrolidone: 50%
Solubilités : dans l'eau: insoluble

(α thienyl-4 thiazolyl-2) oxamate d'éthanolamine [Exemple 5]
Solubilités : dans la méthyl pyrrolidone: 15%
Solubilités : dans l'eau: insoluble

O=C(O)C(=O)Nc1nc(-c2ccco2)cs1 [Exemple 8, Acide (α furyl-4 thiazolyl-2) oxamique]
Solubilités : dans la méthyl pyrrolidone: 25%
Solubilités : dans l'eau: insoluble

O=C(O)C(=O)Nc1nc(-c2cccs2)cs1 [Exemple 2, Acide (α thienyl-4 thiazolyl-2) oxamique]
Solubilités : dans la méthyl pyrrolidone: 50%
Solubilités : dans l'eau: insoluble

CCOC(=O)C(=O)Nc1nc(-c2ccco2)cs1 [Exemple 7, (α furyl-4 thiazolyl-2) oxamate d'éthyle]
Solubilités : dans l'éthanol: 3%
Solubilités : dans la méthyl pyrrolidone: 50%
Solubilités : dans l'eau: insoluble

CCOC(=O)C(=O)Nc1nc(-c2cccs2)cs1 [Exemple 1, (α thienyl-4 thiazolyl-2) oxamate d'éthyle]
Solubilités : dans l'éthanol: 1%
Solubilités : dans la méthyl pyrrolidone: 50%
Solubilités : dans l'eau: insoluble

O=C(O)C(=O)Nc1nc(-c2cccs2)cs1 [Exemple 3, (α thienyl-4 thiazolyl-2) oxamate de sodium]
Solubilités : dans la méthyl pyrrolidone: 15%
Solubilités : dans l'eau: insoluble
